Reference: patent US10793559B2, “Chemical compounds” (GlaxoSmithKline Intellectual Property Development Limited, priority 2016, dated 2020)

Columns and labels:
[1] = test system: amphetamine-induced psychosis; conditions: Law et al. 2012; cited from earlier work
PI3K-Delta = PI3K-Delta (Homo sapiens, UniProt O00329); assay: PI3K HTRF assay (PI3K Delta); type: biochemical; conditions: PI3K-Delta 1.5 nM, 80 μM ATP, 10 μM PIP2 final, read-out: mean pIC50 in the PI3K Delta assay (converted)
Description: Biological Data PI3K HTRF Assay
The binding of compounds to PI3K-alpha/beta/delta/gamma is determined by homogeneous time resolved fluorescence (HTRF) assays as follows;
Briefly, solid compound is dissolved in 100% DMSO at a concentration of 2 mM. Dilutions are prepared in 100% DMSO using a 1 in 4 serial step dilution. The dilutions are transferred to black low volume Greiner assay plates ensuring that the DMSO concentration is constant across the plate at 1% (0.1 ul/well).
PI3K Reaction Buffer (contains 50 mM HEPES pH7.0 (NaOH), 150 mM NaCl, 10 mM MgCl2, 2.3 mM sodium cholate, 10 μM CHAPS made up in milliQ water). Fresh DTT is added at a final concentration of 1 mM on the day of use. Wortmannin at a concentration sufficient to produce 100% inhibition (8.33e-6 M) is added to column 18 of compound plates.
Enzyme solutions: 1× PI3K assay Buffer containing: • 550 pM PI3K-Alpha enzyme (275 pM final assay concentration) • 800 pM PI3K-Beta enzyme (400 pM final assay concentration) • 3 nM PI3K-Delta enzyme (1.5 nM final assay concentration) • 10 nM PI3K-Gamma enzyme (5 nM final assay concentration)
These concentrations are optimal to achieve a signal:background of between 1.5-4.5. The enzyme solution is added to columns 1-24 (3 ul/well) and plates are incubated for 15 minutes at room temperature.
Substrate solution: 1× PI3K assay buffer containing: • PI3K-Alpha: 500 μM ATP, 20 μM PIP2 and 120 nM biotin-PIP3. (Final assay concentrations are 250 μM ATP, 10 μM PIP2 (both at Km) and 40 nM biotin-PIP3) • PI3K-Beta: 800 μM ATP, 20 μM PIP2 and 120 nM biotin-PIP3. (Final assay concentrations are 400 μM ATP, 10 μM PIP2 (both at Km) and 40 nM biotin-PIP3) • PI3K-Delta: […], 20 μM PIP2 and 120 nM biotin-PIP3. (Final assay concentrations are 80 μM ATP, 10 μM PIP2 (both at Km) and 40 nM biotin-PIP3) • PI3K-Gamma: 30 μM ATP, 20 μM PIP2 and 120 nM biotin-PIP3.
This is added to all wells and plates are incubated for 1 hour at room temperature.
Detection solution: PI3K Detection Buffer (contains 50 mM HEPES pH7.0 (HCl), 150 mM NaCl, 2.3 mM sodium cholate, 10 μM CHAPS, 240 mM potassium fluoride) containing 2 mM DTT (2× final concentration), 90 nM GRP-1 PH domain, 300 nM Streptavidin-APC and 24 nM Europium-anti-GST (6× final concentrations)
This is mixed left at room temperature (protected from light).
STOP solution: PI3K STOP Buffer (contains 50 mM HEPES pH7.0 (HCl), 150 mM NaCl, 2.3 mM sodium cholate, 10 μM CHAPS, 150 mM EDTA).
Detection solution is diluted 1:1 with STOP solution and added to all wells (3 ul/well). Plates are covered and incubated on the bench for 45-60 minutes. Plates are read on a PerkinElmer Envision, measuring TR-FRET between the complex formed between the GST-tagged PH domain and biotinylated PIP3 which both recruit fluorophores (Europium-labelled anti-GST & Strep-APC respectively). […], this complex is disrupted by the competitive action of non-biotinylated PIP3 (formed in the assay by the phosphorylation of PIP2 by the kinase & ATP). From this, the ratio of acceptor/donor was calculated (Aex=317 nm, Aem donor=615 nm, em acceptor=665 nm) and used for data analysis.

PI3K-Delta, sequence (O00329 whole entry): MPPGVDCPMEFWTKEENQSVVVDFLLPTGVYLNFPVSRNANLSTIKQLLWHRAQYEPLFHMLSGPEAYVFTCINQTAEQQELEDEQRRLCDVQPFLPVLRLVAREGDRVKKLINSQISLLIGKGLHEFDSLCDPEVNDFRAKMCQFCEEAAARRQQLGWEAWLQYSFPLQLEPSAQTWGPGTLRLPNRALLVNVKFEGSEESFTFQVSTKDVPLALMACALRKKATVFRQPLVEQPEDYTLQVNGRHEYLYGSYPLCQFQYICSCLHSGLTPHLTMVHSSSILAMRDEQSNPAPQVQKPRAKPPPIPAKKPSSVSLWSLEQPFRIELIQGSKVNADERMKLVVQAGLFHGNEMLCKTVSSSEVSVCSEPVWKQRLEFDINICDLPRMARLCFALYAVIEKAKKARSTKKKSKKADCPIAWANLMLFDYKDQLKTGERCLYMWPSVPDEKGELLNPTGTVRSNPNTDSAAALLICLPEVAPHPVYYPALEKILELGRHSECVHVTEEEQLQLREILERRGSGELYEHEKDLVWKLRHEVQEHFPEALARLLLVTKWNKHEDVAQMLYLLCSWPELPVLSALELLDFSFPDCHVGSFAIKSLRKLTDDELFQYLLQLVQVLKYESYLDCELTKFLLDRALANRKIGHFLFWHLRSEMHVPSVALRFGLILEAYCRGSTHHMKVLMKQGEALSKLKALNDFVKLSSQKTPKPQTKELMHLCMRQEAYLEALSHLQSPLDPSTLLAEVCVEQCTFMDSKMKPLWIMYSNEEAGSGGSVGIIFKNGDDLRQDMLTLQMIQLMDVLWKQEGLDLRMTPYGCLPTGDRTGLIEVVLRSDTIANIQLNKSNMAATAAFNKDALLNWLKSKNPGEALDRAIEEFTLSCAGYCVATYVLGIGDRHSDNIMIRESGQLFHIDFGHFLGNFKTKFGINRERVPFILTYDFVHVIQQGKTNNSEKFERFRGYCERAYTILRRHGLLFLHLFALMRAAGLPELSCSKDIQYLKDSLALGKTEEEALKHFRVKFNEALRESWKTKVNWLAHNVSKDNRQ
PI3K-Delta, sequence (P27986 whole entry partner): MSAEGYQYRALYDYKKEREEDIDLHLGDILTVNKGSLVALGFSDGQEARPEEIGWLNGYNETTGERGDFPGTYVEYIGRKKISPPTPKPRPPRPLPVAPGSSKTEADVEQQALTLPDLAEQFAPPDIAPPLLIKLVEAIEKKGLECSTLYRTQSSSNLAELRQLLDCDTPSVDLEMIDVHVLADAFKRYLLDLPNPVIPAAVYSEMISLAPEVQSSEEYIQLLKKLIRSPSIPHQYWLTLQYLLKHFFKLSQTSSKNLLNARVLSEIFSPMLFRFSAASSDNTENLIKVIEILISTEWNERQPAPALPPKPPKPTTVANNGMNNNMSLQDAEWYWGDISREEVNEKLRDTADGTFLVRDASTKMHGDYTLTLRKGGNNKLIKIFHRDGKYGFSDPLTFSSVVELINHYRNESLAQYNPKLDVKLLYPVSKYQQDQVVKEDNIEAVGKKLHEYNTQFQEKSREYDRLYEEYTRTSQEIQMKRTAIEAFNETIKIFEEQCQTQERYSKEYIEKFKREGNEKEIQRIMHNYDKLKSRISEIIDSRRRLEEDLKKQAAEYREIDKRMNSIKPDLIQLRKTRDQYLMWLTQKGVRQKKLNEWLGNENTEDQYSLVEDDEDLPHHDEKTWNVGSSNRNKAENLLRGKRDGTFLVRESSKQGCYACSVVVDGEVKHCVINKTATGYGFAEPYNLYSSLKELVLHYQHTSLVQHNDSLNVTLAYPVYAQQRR

Row | IC50 (PI3K-Delta) | SMILES | efficacy in a mouse model of amphetamine-induced psychosis [1]
1 |  | Cc1ccccc1-n1c(Cn2cnc3c(N)ncnc32)nc2cccc(C)c2c1=O [IC87114] | remarkable efficacy
2 | ≤ 3.16 nM | COc1ncc(N2CCOCC2)cc1S(=O)(=O)Nc1ccnc(-c2ccc(CN3CCOCC3)cc2)c1 [Example 24, 2-Methoxy-5-morpholino-N-(2-(4-(morpholinomethyl)phenyl)pyridin-4-yl)pyridine-3-sulfonamide] | 
